{"source": "ChEMBL document CHEMBL1811810", "about": "“N-substituted homopiperazine barbiturates as gelatinase inhibitors” (Bioorg Med Chem, 2011)", "test_system": "Caco-2", "experiment": "cells", "conditions": "Homo sapiens, Caco-2, read-out: INH", "description": "Inhibition of cell invasion of human Caco2 cells at 100 nM by cell invasion assay"}
{"smiles": "CN(C)c1cccc2c(S(=O)(=O)N3CCCN(C4(c5ccc(Oc6ccccc6)cc5)C(=O)NC(=O)NC4=O)CC3)cccc12", "values": [{"measurement": "inhibition at 0.1 µM", "result": 20.1, "unit": "%"}]}
